Experimental data reported in ChEMBL document CHEMBL1833845, “Potent inhibition of bacterial neuraminidase activity by pterocarpans isolated from the roots of Lespedeza bicolor” (Bioorg Med Chem Lett, 2011).

Legend:
Sialidase [1] = biological target: T1, Sialidase (Clostridium perfringens, UniProt P10481)
T1 sequence (P10481 whole entry): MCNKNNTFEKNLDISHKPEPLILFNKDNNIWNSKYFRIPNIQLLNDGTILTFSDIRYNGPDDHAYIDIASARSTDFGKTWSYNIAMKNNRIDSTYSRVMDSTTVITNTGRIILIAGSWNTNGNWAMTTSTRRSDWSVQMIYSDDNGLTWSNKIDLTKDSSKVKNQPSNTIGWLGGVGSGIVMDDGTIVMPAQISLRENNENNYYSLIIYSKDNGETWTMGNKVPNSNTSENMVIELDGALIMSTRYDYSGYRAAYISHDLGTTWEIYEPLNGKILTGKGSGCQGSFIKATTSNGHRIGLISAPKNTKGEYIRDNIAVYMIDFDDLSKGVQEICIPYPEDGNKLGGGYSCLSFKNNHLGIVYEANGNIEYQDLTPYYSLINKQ

Sialidase [2] = biological target: T1, Sialidase; remark: listed apart in the source

SMILES	Ki (Sialidase [1]) [µM]	IC50 (Sialidase [2]) [µM]
COc1c(CC=C(C)C)c(O)cc2c1[C@@H]1Oc3c(cc(C)c(O)c3CC=C(C)C)[C@@H]1CO2 [BICOLOSIN A]	0.16	0.32
O=c1c(O)c(-c2ccc(O)c(O)c2)oc2cc(O)cc(O)c12 [QUERCETIN]	–	10.1
COc1cc(O)c(C/C=C(\C)CCC=C(C)C)c2c1[C@@H]1Oc3cc(O)ccc3[C@@H]1CO2 [BICOLOSIN C]	0.16	0.17
CC(C)=CCc1cc2c(cc1O)OCC1c3cc(C)c(O)c(CC=C(C)C)c3OC21 (stereo not drawn) [LESPEBUERGINE G4]	1.35	1.84
CC(C)=CCC/C(C)=C/Cc1cc2c(cc1O)OC[C@H]1c3cc(C)c(O)c(CC=C(C)C)c3O[C@@H]21 [BICOLOSIN B]	1.2	1.06
COc1c(CC=C(C)C)c(O)cc2c1[C@@H]1Oc3c(ccc(O)c3CC=C(C)C)[C@@H]1CO2	0.11	0.09
CC(C)=CCc1cc2c(cc1O)OC[C@H]1c3ccc(O)c(CC=C(C)C)c3O[C@@H]21 [ERYBRAEDIN C]	2.73	3.35
